Test results reported in ChEMBL document CHEMBL1914402, “Design, synthesis, and biological evaluation of 3,4-dihydroquinolin-2(1H)-one and 1,2,3,4-tetrahydroquinoline-based selective human neuronal nitric oxide synthase (nNOS) inhibitors” (J Med Chem, 2011).

What was measured:
[1] = target: Nitric oxide synthase 1 (Homo sapiens, UniProt P29475); test: Inhibition of human recombinant nNOS expressed in baculovirus infected Sf9 cells assessed as conversion of [3H]L-arginine to [3H]L-citrulline preincubated for 15 mins measured after 45 mins by liquid scintillation counting; type: cell-based
[2] = target: Nitric oxide synthase, inducible (Homo sapiens, UniProt P35228); test: Inhibition of human recombinant iNOS expressed in baculovirus infected Sf9 cells assessed as conversion of [3H]L-arginine to [3H]L-citrulline preincubated for 15 mins measured after 45 mins by liquid scintillation counting; type: cell-based
[3] = target: Cytochrome P450 2C19 (Homo sapiens, UniProt P33261); test: Inhibition of human CYP2C19; type: ADME
[4] = target: Cytochrome P450 2D6 (Homo sapiens, UniProt P10635); test: Inhibition of human CYP2D6; type: ADME
[5] = target: T1, Nitric oxide synthase 3 (Homo sapiens, UniProt P29474); test: Inhibition of human recombinant eNOS expressed in baculovirus infected Sf9 cells assessed as conversion of [3H]L-arginine to [3H]L-citrulline preincubated for 15 mins measured after 45 mins by liquid scintillation counting; type: cell-based
T1 sequence (P29474 whole entry): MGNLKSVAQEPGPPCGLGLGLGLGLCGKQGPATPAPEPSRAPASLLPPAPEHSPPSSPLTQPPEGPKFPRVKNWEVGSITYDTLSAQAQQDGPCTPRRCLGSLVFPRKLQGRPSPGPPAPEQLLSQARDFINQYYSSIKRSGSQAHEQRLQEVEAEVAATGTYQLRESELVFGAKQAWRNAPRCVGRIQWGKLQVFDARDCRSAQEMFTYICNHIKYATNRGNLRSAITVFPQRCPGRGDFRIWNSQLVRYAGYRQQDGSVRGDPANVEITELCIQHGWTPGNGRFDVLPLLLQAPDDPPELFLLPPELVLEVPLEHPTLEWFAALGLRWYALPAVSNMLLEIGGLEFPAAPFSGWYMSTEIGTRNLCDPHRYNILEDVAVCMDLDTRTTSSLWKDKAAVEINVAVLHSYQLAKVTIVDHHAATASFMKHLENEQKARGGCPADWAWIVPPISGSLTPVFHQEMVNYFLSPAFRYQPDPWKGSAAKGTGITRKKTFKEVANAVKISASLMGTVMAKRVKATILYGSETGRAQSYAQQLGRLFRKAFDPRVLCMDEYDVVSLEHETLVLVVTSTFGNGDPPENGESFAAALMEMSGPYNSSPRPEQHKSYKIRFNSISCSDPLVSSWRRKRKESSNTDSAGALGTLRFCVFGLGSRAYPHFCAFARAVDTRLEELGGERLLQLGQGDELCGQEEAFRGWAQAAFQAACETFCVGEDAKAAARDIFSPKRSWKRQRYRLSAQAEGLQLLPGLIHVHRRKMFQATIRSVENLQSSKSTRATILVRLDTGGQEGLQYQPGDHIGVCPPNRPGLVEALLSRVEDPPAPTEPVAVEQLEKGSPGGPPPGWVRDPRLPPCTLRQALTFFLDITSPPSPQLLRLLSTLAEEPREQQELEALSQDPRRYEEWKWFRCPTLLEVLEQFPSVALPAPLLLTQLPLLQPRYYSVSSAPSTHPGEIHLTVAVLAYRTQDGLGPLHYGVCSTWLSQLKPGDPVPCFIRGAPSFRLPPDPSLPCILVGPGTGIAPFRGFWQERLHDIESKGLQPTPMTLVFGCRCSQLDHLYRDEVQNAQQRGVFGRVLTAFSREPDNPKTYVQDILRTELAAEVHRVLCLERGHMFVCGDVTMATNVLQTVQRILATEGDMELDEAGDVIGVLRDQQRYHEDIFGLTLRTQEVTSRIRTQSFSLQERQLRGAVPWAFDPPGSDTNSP

[6] = target: Cytochrome P450 3A4 (Homo sapiens, UniProt P08684); test: Inhibition of human CYP3A4; type: ADME
[7] = target: T2, Cytochrome P450 1A2 (Homo sapiens, UniProt P05177); test: Inhibition of human CYP1A2; type: ADME
T2 sequence (P05177 whole entry): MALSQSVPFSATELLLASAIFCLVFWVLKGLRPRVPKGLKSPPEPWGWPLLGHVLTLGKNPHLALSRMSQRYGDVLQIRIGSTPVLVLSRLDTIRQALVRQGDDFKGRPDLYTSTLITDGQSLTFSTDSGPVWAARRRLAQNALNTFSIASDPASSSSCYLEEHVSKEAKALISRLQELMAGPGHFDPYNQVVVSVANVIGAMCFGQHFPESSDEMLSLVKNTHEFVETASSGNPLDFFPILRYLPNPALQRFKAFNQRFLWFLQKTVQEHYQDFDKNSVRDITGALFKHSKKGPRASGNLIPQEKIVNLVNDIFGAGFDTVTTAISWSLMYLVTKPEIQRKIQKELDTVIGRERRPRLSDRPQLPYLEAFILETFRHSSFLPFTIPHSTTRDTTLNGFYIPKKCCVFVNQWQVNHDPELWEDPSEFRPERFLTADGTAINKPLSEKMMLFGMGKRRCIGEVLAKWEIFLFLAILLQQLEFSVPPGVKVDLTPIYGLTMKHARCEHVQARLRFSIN

[8] = target: Cytochrome P450 2C9 (Homo sapiens, UniProt P11712); test: Inhibition of human CYP2C9; type: ADME
Chain of Cytochrome P450 2C9 (P11712 whole entry): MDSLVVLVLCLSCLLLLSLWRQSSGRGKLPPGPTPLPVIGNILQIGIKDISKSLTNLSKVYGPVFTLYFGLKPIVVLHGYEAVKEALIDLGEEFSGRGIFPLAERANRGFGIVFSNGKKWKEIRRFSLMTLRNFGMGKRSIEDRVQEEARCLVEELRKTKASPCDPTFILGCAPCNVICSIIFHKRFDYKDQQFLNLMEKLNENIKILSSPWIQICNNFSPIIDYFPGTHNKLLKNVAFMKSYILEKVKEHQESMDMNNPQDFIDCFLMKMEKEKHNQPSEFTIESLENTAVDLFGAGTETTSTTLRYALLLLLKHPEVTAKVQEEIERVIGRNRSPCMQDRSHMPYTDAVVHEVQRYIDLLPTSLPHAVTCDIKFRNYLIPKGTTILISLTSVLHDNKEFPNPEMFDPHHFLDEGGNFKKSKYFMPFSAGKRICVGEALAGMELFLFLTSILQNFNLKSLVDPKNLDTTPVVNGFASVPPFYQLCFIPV

Chain of Cytochrome P450 2D6 (P10635 whole entry): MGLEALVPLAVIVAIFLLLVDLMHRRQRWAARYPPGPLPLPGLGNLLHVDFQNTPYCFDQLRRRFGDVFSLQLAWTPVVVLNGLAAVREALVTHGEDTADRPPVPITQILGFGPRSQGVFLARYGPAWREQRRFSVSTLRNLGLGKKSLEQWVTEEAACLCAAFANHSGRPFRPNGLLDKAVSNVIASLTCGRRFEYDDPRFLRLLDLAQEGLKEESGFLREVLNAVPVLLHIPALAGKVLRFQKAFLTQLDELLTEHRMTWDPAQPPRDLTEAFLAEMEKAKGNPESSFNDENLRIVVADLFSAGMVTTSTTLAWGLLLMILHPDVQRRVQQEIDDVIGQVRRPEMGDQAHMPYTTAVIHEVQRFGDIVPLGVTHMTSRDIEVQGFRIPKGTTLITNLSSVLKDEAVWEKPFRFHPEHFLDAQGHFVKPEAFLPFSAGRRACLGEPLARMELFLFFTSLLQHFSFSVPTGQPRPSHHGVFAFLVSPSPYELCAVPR
Chain of Cytochrome P450 2C19 (P33261 whole entry): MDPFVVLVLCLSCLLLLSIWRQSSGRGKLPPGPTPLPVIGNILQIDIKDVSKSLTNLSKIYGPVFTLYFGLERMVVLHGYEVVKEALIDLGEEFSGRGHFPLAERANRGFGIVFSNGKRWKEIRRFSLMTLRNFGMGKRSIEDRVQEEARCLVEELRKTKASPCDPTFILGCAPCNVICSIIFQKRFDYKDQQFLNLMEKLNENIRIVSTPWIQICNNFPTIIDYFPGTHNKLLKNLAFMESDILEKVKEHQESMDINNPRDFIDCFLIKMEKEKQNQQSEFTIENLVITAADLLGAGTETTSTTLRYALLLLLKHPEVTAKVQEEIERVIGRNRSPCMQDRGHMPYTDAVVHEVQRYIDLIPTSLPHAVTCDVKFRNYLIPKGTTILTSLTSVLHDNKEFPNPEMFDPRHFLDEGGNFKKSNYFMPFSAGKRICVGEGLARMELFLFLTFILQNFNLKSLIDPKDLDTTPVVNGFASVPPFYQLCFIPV
Chain of Nitric oxide synthase 1 (P29475 whole entry): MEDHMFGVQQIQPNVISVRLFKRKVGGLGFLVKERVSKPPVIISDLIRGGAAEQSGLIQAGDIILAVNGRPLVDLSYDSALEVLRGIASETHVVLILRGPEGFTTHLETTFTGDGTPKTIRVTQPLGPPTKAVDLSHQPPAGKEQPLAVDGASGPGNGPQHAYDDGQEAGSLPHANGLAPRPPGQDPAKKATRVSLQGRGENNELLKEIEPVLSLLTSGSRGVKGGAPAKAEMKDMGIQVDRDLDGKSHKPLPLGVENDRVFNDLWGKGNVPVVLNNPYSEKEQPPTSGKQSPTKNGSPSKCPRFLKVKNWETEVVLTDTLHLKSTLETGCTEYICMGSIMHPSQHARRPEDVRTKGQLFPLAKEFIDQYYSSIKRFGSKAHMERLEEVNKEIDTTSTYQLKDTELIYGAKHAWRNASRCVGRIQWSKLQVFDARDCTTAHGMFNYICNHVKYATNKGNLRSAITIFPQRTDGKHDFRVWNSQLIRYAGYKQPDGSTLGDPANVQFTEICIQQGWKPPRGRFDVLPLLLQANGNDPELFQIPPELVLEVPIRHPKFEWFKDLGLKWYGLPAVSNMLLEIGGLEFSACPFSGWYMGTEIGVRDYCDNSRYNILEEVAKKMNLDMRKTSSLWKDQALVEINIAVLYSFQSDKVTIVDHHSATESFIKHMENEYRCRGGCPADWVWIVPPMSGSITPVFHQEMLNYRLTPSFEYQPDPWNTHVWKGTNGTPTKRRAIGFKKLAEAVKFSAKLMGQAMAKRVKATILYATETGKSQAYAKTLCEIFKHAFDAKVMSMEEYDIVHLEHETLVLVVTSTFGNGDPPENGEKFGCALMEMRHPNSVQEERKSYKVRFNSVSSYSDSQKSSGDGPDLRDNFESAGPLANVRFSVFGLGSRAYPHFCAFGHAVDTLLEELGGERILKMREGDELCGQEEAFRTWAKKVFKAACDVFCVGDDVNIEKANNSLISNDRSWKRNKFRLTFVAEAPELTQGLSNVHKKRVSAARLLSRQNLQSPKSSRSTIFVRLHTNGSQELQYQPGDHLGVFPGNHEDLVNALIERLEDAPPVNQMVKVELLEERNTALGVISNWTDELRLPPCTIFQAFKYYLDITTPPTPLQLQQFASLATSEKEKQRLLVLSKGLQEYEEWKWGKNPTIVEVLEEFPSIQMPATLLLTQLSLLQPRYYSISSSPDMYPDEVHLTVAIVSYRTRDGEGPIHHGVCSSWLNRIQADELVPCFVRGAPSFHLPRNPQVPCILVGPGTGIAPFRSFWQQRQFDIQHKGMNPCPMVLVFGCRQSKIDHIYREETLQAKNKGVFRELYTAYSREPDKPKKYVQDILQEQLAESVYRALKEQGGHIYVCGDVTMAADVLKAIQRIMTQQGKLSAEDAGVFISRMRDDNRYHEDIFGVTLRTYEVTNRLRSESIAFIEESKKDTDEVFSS
Chain of Nitric oxide synthase, inducible (P35228 whole entry): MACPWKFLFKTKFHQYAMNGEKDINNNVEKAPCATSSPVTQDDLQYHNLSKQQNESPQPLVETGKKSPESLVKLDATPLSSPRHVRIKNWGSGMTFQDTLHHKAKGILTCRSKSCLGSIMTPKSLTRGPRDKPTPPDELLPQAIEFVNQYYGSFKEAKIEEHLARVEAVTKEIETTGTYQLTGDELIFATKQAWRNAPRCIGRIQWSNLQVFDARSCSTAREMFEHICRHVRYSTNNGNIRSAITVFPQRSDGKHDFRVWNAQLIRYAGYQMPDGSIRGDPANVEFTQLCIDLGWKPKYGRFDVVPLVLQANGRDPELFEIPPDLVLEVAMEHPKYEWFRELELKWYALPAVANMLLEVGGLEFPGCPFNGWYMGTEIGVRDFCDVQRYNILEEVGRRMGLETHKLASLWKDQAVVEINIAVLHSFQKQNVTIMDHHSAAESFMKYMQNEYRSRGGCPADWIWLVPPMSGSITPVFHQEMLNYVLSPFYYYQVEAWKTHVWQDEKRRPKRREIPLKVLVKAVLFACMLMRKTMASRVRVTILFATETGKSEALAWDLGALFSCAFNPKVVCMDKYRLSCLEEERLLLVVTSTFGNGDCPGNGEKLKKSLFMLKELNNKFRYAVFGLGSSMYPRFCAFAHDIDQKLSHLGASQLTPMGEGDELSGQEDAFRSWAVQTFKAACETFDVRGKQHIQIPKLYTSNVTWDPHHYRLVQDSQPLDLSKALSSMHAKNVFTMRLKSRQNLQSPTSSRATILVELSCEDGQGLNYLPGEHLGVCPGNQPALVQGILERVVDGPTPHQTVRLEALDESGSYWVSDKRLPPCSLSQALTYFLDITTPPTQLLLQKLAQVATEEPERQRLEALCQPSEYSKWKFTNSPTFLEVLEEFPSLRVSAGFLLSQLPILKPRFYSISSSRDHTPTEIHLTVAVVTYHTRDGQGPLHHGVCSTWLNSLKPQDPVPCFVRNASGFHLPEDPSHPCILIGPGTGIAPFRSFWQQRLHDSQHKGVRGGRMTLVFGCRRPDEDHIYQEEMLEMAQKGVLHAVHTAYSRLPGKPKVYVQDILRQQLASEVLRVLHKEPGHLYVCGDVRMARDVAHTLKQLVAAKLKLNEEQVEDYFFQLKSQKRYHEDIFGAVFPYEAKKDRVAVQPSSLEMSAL
Chain of Cytochrome P450 3A4 (P08684 whole entry): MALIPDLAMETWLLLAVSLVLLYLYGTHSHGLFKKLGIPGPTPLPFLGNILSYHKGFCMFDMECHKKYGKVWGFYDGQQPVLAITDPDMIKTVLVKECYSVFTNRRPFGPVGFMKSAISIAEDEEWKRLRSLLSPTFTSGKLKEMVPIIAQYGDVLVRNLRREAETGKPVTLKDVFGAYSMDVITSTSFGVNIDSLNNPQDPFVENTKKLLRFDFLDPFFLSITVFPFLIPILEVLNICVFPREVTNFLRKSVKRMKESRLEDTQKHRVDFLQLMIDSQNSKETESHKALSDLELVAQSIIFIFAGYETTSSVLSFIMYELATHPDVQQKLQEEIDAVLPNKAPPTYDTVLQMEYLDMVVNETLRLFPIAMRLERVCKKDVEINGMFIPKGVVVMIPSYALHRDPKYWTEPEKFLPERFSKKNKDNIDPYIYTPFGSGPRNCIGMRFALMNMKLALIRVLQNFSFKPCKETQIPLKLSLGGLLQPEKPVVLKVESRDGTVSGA

Question: `N=C(Nc1ccc2c(c1)CCC(=O)N2CCN1CCCC1)c1cccs1` was tested. Which IC50 [1] did it give?
Answer: The IC50 was 0.16 µM.

Question: And the IC50 [2]?
Answer: Its IC50 is 11 µM.

Question: What does the source list for `N=C(Nc1ccc2c(c1)CCCN2C1CCNCC1)c1cccs1`?
Answer: IC50 [3]: 47.1 µM; IC50 [1]: 0.54 µM; IC50 [4]: > 100 µM; IC50 [2]: > 100 µM; IC50 [5]: 119 µM; IC50 [6]: > 100 µM; IC50 [7]: > 100 µM; IC50 [8]: > 100 µM

Question: With `CN(C)CCN1C(=O)CCc2cc(NC(=N)c3cccs3)cc(F)c21` as the molecule, how does the IC50 [1] read?
Answer: The IC50 was 3.36 µM.

Question: For `N=C(Nc1ccc2c(c1)CCC(=O)N2CCCN1CCCC1)c1cccs1`, which IC50 [1] is on record?
Answer: The IC50 was 1.22 µM.

Question: And the IC50 [2]?
Answer: Its IC50 is greater than 100 µM.

Question: For `CN(C)CCN1CCCc2cc(NC(=N)c3cccs3)cc(F)c21`, which IC50 [1] is on record?
Answer: Its IC50 is 0.093 µM.

Question: Which IC50 [1] does the source give for `CCN(CC)CCN1CCCc2cc(NC(=N)c3cccs3)ccc21` here?
Answer: The IC50 was 0.26 µM.

Question: And the IC50 [2]?
Answer: Its IC50 is greater than 100 µM.

Question: For `N=C(Nc1ccc2c(c1)CCC(=O)N2CCN1CCCCC1)c1cccs1`, which IC50 [2] is on record?
Answer: Its IC50 is greater than 100 µM.

Question: Which IC50 [3] does the source give for `CN(C)CCN1CCCc2cc(NC(=N)c3cccs3)ccc21` here?
Answer: The IC50 was greater than 100 µM.

Question: And the IC50 [4]?
Answer: The IC50 was greater than 100 µM.

Question: And the IC50 [6]?
Answer: The IC50 was greater than 100 µM.

Question: What about the IC50 [7] of the same molecule?
Answer: Its IC50 is greater than 100 µM.

Question: And the IC50 [8]?
Answer: Its IC50 is greater than 100 µM.

Question: `CN1CCC(N2CCCc3cc(NC(=N)c4cccs4)ccc32)CC1` was tested. Which IC50 [1] did it give?
Answer: Its IC50 is 0.82 µM.

Question: What about the IC50 [5] of the same molecule?
Answer: The IC50 was 42.7 µM.

Question: How did the IC50 [3] turn out when `CN(C)CCN1C(=O)CCc2cc(NC(=N)c3cccs3)ccc21` was run?
Answer: The IC50 was greater than 100 µM.

Question: What about the IC50 [4] of the same molecule?
Answer: Its IC50 is 12.2 µM.

Question: What about the IC50 [2] of the same molecule?
Answer: The IC50 was 35 µM.

Question: And the IC50 [6]?
Answer: Its IC50 is greater than 100 µM.

Question: What about the IC50 [7] of the same molecule?
Answer: Its IC50 is greater than 100 µM.

Question: And the IC50 [8]?
Answer: Its IC50 is greater than 100 µM.

Question: With `CN1CCCC1CCN1C(=O)CCc2cc(NC(=N)c3cccs3)ccc21` (racemic) as the molecule, how does the IC50 [1] read?
Answer: Its IC50 is 1.05 µM.

Question: And the IC50 [2]?
Answer: The IC50 was greater than 100 µM.

Question: Which results are given for `N=C(Nc1ccc2c(c1)CCCN2CCCN1CCCC1)c1cccs1`?
Answer: IC50 [1]: 0.086 µM; IC50 [5]: 9.5 µM

Question: For `CCN(CC)CCN1C(=O)CCc2cc(NC(=N)c3cccs3)ccc21`, which IC50 [2] is on record?
Answer: Its IC50 is 12 µM.
